Data taken from patent publication US20040067507A1, “Liver inflammation predictive genes” (priority 2002, published 2004).
Read-outs that look alike come from different tables or passages of the source.

Tested on: Sprague Dawley rats Crl:CD
Format: in vivo, rat
Excerpt: In addition to the database described and utilized herein, other toxicology gene expression databases may be generated, and used to identify additional liver toxicity biomarkers, which may also be employed in the practice of the liver inflammation prediction methods of the invention. […] An example of compounds, dose levels, liver toxicity classifications and histopathology scores used in the Examples which follow are provided in Table 1. The compounds and dose levels are abbreviated in the Abbreviation Column. The Inflammation Score relates the histopathology liver inflammation, a score of “2” or higher indicates histopathology of increasing severity.
Identification of Correlating Genes: For the purpose of identifying candidate predictive genes, the database preferably includes histopathology scores for each animal which has been exposed to one or more agent(s). […] The scores are numerical scores that reflect the occurrence and severity of histopathological changes. These scores can be adjusted to have similar range to gene expression changes. […] Because the scores are numerical, they are suitable for use with a variety of statistical correlation and similarity measures.
Sprague Dawley rats Crl:CD from Charles River, Raleigh, N.C. were divided into treated rats that receive a specific concentration of the compound (see Table 1) and the control rats that only received the vehicle in which the compound is mixed (e.g., saline).
At specified timepoints (6 h, 24 h and 72 h) after administration (intraperitoneal route) of the compound, a set number of rats (usually 3 control and 3 treated) were euthanized and tissues collected. Each rat was heavily sedated with an overdose of CO2 by inhalation and a maximum amount of blood drawn. Exsanguination of the rat by this drawing of blood kills the rat. The method of collecting the tissues is very important and ensures preserving the quality of the mRNA in the tissues. The body of the rat was then opened up and prosectors rapidly removed the tissues (including liver) and immediately placed them into liquid nitrogen. […] The organs/tissues were then packaged into well-labeled plastic freezer quality bags and stored at −80 degrees until needed for isolation of the mRNA from a portion of the organ/tissue sample.
Correlation with Histopathology Scores: Histopathology scores for each animal (assigned on a compound-dose basis as indicated in Table 1) were entered with gene expression data by using the GeneSpring™ ‘Drawn Gene’ function. Correlations between inflammation histopathology scores and gene expression were conducted with the distance measures listed below: […]

[1] = 0.5 mg/kg i.p., 72 h, 1=no histopathology, 2 or higher=increasing severity
[2] = 2 mg/kg i.p., 72 h, 1=no histopathology, 2 or higher=increasing severity
[3] = 38 mg/kg i.p., 72 h, 1=no histopathology, 2 or higher=increasing severity
[4] = 150 mg/kg i.p., 72 h, 1=no histopathology, 2 or higher=increasing severity
[5] = Sprague Dawley Crl:CD, rat, in vivo
[6] = 15 mgkg i.p., 72 h, 1=no histopathology, 2 or higher=increasing severity
[7] = 60 mgkg i.p., 72 h, 1=no histopathology, 2 or higher=increasing severity
[8] = 50 mg/kg i.p., 72 h, 1=no histopathology, 2 or higher=increasing severity
[9] = 200 mg/kg i.p., 72 h, 1=no histopathology, 2 or higher=increasing severity
[10] = 1.3 mg/kg i.p., 72 h, 1=no histopathology, 2 or higher=increasing severity
[11] = 5 mg/kg i.p., 72 h, 1=no histopathology, 2 or higher=increasing severity
[12] = 20 mg/kg i.p., 72 h, 1=no histopathology, 2 or higher=increasing severity
[13] = 16 mg/kg i.p., 72 h, 1=no histopathology, 2 or higher=increasing severity
[14] = 75 mg/kg i.p., 72 h, 1=no histopathology, 2 or higher=increasing severity
[15] = 250 mg/kg i.p., 72 h, 1=no histopathology, 2 or higher=increasing severity
[16] = Sprague Dawley Crl:CD, rat, in vivo, ip
[17] = 40 mg/kg i.p., 72 h, 1=no histopathology, 2 or higher=increasing severity
[18] = 160 mg/kg i.p., 72 h, 1=no histopathology, 2 or higher=increasing severity
[19] = 0.1 mg/kg i.p., 72 h, 1=no histopathology, 2 or higher=increasing severity
[20] = 0.4 mg/kg i.p., 72 h, 1=no histopathology, 2 or higher=increasing severity
[21] = 2.5 mg/kg i.p., 72 h, 1=no histopathology, 2 or higher=increasing severity
[22] = 10 mg/kg i.p., 72 h, 1=no histopathology, 2 or higher=increasing severity
[23] = 0.2 ml/kg i.p., 72 h, 1=no histopathology, 2 or higher=increasing severity
[24] = 0.8 ml/kg i.p., 72 h, 1=no histopathology, 2 or higher=increasing severity

## C[C@@H]1C[C@@H]([C@H](O)CC2CC(=O)NC(=O)C2)C(=O)[C@@H](C)C1 [cycloheximide]
0.5 mg/kg i.p., 72 h
  Liver Inflammation: no
  Liver Necrosis: no
[1]
  Inflamm. Score: 1
  Necr. Score: 1
2 mg/kg i.p., 72 h
  Liver Inflammation: no
  Liver Necrosis: no
[2]
  Inflamm. Score: 1
  Necr. Score: 1

## COc1ccc(C[C@H](N)C(=O)N[C@H]2[C@@H](O)[C@H](n3cnc4c(N(C)C)ncnc43)O[C@@H]2CO)cc1 [puromycin]
38 mg/kg i.p., 72 h
  Liver Inflammation: no
  Liver Necrosis: no
[3]
  Inflamm. Score: 1
  Necr. Score: 1
150 mg/kg i.p., 72 h
  Liver Inflammation: no
  Liver Necrosis: no
[4]
  Inflamm. Score: 1
  Necr. Score: 1

## CN(C)[C@@H]1C(O)=C(C(N)=O)C(=O)[C@@]2(O)C(O)=C3C(=O)c4c(O)cccc4[C@@](C)(O)[C@H]3C[C@@H]12 [tetracycline]
[5]
  Inflamm. Score: 1
rat, in vivo
  Liver Inflammation: no

## O=C(O)c1cc(-c2ccc(F)cc2F)ccc1O [diflunisal]
[5]
  Inflamm. Score: 1
  Necr. Score: 1
rat, in vivo
  Liver Inflammation: no
  Liver Necrosis: no

## S=C=Nc1cccc2ccccc12 [1-naphthylisothiocyanate]
15 mgkg i.p., 72 h
  Liver Necrosis: no
[6]
  Inflamm. Score: 1
  Necr. Score: 1
60 mgkg i.p., 72 h
  Liver Necrosis: yes
[7]
  Inflamm. Score: 2
  Necr. Score: 2

## NNC(=O)c1ccncc1 [isoniazid]
50 mg/kg i.p., 72 h
  Liver Inflammation: no
  Liver Necrosis: no
[8]
  Inflamm. Score: 1
  Necr. Score: 1
200 mg/kg i.p., 72 h
  Liver Inflammation: no
  Liver Necrosis: no
[9]
  Inflamm. Score: 1
  Necr. Score: 1

## CN(Cc1cnc2nc(N)nc(N)c2n1)c1ccc(C(=O)N[C@@H](CCC(=O)O)C(=O)O)cc1 [methotrexate]
1.3 mg/kg i.p., 72 h
  Liver Inflammation: no
  Liver Necrosis: no
[10]
  Inflamm. Score: 1
  Necr. Score: 1
5 mg/kg i.p., 72 h
  Liver Inflammation: no
  Liver Necrosis: no
[11]
  Inflamm. Score: 1
  Necr. Score: 1

## C[C@@H]1[C@H](O)[C@@H](C)/C=C/C=C/C=C/C=C/C=C/C=C/C=C/[C@H](O[C@@H]2O[C@H](C)[C@@H](O)[C@H](N)[C@@H]2O)C[C@@H]2O[C@](O)(C[C@@H](O)C[C@@H](O)[C@H](O)CC[C@@H](O)C[C@@H](O)CC(=O)O[C@H]1C)C[C@H](O)[C@H]2C(=O)O [amphotericin B]
5 mg/kg i.p., 72 h
  Liver Inflammation: no
  Liver Necrosis: no
[11]
  Inflamm. Score: 1
  Necr. Score: 1
20 mg/kg i.p., 72 h
  Liver Inflammation: no
  Liver Necrosis: no
[12]
  Inflamm. Score: 1
  Necr. Score: 1

## O=NN(CCCl)C(=O)NCCCl [carmustine]
16 mg/kg i.p., 72 h
  Liver Inflammation: no
  Liver Necrosis: no
[13]
  Inflamm. Score: 1
  Necr. Score: 1

## CCOC(=O)C(C)(C)Oc1ccc(Cl)cc1 [clofibrate]
75 mg/kg i.p., 72 h
  Liver Inflammation: no
  Liver Necrosis: no
[14]
  Inflamm. Score: 1
  Necr. Score: 1
250 mg/kg i.p., 72 h
  Liver Inflammation: no
  Liver Necrosis: no
[15]
  Inflamm. Score: 1
  Necr. Score: 1

## ClC(Cl)Cl [chloroform]
[16]
  Inflamm. Score: 1
  Necr. Score: 1
rat, in vivo, ip
  Liver Inflammation: no
  Liver Necrosis: no

## CCC(=O)O[C@H]1[C@H](O[C@@H]2[C@@H](C)[C@H](O[C@H]3C[C@@](C)(OC)[C@@H](O)[C@H](C)O3)[C@@H](C)C(=O)O[C@H](CC)[C@@](C)(O)[C@H](O)[C@@H](C)C(=O)[C@H](C)C[C@@]2(C)O)O[C@H](C)C[C@@H]1N(C)C [erythromycin estolate]
40 mg/kg i.p., 72 h
  Liver Inflammation: no
  Liver Necrosis: no
[17]
  Inflamm. Score: 1
  Necr. Score: 1
160 mg/kg i.p., 72 h
  Liver Inflammation: no
  Liver Necrosis: no
[18]
  Inflamm. Score: 1
  Necr. Score: 1

## CCO [ethanol]
[16]
  Inflamm. Score: 1
  Necr. Score: 1
rat, in vivo, ip
  Liver Inflammation: no
  Liver Necrosis: no

## C[C@]12CC[C@@H]3c4ccc(O)cc4CC[C@H]3[C@@H]1CC[C@@H]2O [estradiol]
0.1 mg/kg i.p., 72 h
  Liver Inflammation: no
  Liver Necrosis: no
[19]
  Inflamm. Score: 1
  Necr. Score: 1
0.4 mg/kg i.p., 72 h
  Liver Inflammation: no
  Liver Necrosis: no
[20]
  Inflamm. Score: 1
  Necr. Score: 1

## N.N.[Cl][Pt][Cl] [cisplatin]
2.5 mg/kg i.p., 72 h
  Liver Inflammation: no
  Liver Necrosis: no
[21]
  Inflamm. Score: 1
  Necr. Score: 1
10 mg/kg i.p., 72 h
  Liver Inflammation: no
  Liver Necrosis: no
[22]
  Inflamm. Score: 1
  Necr. Score: 1

## Brc1ccccc1 [bromobenzene]
0.2 ml/kg i.p., 72 h
  Liver Inflammation: yes
  Liver Necrosis: yes
[23]
  Inflamm. Score: 2
  Necr. Score: 2
0.8 ml/kg i.p., 72 h
  Liver Inflammation: yes
  Liver Necrosis: yes
[24]
  Inflamm. Score: 3
  Necr. Score: 4

## c1ccccc1 [benzene]
[16]
  Inflamm. Score: 1
  Necr. Score: 1
rat, in vivo, ip
  Liver Inflammation: no
  Liver Necrosis: no
